One test concerns HT-29 cells. Kind of test: In vitro anti-proliferative activity against HT-29 cells (intracellular ATP content, 72 h). The conditions noted are these: Homo sapiens, 72 h after dosing. In kind it is cell-based. The protocol:
Biological Example 2. In Vitro Anti-Proliferative Activity of Compounds of the Present Invention Against HT-29 Cells
HT-29 cells were seeded on a 384-well plate at 3000 cells/well. After overnight adherence culture, DMSO or the compounds serially diluted in a 1:5 ratio from 5 μM were added. The viability was assessed 72 h after dosing by measuring the intracellular ATP content. The inhibition percentages of viable cells by the compounds were calculated by comparing with the DMSO group, and the […] values were also calculated.

In test [1] the target is Recombinant human KIF18A (1-467His-tagged) protein (Homo sapiens (Human), UniProt Q8NI77). The experiment in a line: KIF18A enzyme assay (microtubule-stimulated ATPase activity, ADP-Glo). The format is biochemical. Particulars: 30 nM KIF18A, ATP 75 μM, read-out: inhibitory activity against KIF18A IC50. In outline:
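Baculovirus-expressed human KIF18A (1-467, His-tagged; 30 nM) preincubated 15 min at room temperature with compound (22-point 2-fold series) in pH 7.5 Tris buffer containing 30 μg/mL pig microtubules and 1 μM paclitaxel.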
In general terms: In ADP-Glo the light output rises with the ADP produced.

A further test relates to HCT116 cells. The experiment in a line: In vitro anti-proliferative activity against HCT116 cells (intracellular ATP content, 72 h). The format is cell-based. The conditions noted are these: Homo sapiens, HCT-116, 72 h after dosing. The protocol:
Biological Example 3. In Vitro Anti-Proliferative Activity of Compounds of the Present Invention Against HCT116 Cells
HCT116 cells were seeded on a 384-well plate at 3000 cells/well. After overnight adherence culture, DMSO or the compounds serially diluted in a 1:5 ratio from 5 μM were added. The viability was assessed 72 h after dosing by measuring the intracellular ATP content. The inhibition percentages of viable cells by the compounds were calculated by comparing with the DMSO group, and the IC50 values were also calculated.

pIC50: −log10 of the molar value.

Sequence of Recombinant human KIF18A (1-467His-tagged) protein (Q8NI77 1-467): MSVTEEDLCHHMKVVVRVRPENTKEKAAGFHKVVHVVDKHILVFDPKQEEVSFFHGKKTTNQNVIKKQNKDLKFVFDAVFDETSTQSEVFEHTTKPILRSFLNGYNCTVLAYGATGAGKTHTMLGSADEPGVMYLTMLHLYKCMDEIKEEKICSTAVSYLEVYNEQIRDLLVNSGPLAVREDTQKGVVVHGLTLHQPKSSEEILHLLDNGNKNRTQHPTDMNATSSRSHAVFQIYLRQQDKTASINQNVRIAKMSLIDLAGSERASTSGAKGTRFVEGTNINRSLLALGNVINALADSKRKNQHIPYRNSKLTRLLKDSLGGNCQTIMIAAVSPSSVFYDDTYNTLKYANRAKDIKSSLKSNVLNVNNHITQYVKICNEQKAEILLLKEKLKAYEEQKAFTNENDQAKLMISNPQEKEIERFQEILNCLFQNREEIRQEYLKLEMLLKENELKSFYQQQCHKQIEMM
Sequence of Recombinant human KIF18A (1-467His-tagged) protein (P02550 whole entry partner): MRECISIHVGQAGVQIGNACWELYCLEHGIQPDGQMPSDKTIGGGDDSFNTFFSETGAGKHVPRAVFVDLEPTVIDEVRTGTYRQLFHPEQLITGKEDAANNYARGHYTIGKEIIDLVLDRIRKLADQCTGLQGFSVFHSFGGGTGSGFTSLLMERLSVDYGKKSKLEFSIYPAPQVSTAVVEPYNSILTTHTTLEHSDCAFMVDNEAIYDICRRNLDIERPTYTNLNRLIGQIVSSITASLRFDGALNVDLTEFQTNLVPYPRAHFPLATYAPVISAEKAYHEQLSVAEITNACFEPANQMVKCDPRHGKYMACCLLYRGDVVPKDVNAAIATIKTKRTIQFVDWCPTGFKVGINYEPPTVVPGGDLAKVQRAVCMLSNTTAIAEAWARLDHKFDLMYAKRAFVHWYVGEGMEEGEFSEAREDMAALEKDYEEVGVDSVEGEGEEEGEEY
Sequence of Recombinant human KIF18A (1-467His-tagged) protein (P02554 whole entry partner): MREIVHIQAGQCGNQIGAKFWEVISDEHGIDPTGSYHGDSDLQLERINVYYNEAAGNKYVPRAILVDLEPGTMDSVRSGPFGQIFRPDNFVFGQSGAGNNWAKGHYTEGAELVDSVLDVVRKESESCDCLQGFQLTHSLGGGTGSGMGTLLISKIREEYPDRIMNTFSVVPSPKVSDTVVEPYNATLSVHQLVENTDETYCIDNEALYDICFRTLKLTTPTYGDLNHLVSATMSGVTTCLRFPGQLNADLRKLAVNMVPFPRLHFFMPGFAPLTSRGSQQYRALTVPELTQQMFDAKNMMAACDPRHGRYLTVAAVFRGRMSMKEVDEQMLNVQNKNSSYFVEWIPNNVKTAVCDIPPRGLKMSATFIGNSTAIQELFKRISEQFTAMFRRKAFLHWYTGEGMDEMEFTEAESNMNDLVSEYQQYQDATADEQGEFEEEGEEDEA

A word on the pIC50: it is the negative decadic logarithm of the IC50, by convention in mol/L. With `O=C(Nc1cc2c(c(N3CCC(F)(F)CC3)c1)OCC2)c1ccc(NS(=O)(=O)CCO)cc1N1CCC2(CC1)CC2` [Compound 1], the pIC50 in the test on HT-29 cells is 8.05; in test [1] it was not below 7.00; with HCT116 cells it was less than 5.00.

`O=C(Nc1cc2c(c(N3CC(F)(F)C3)c1)OCC2)c1ccc(NS(=O)(=O)CCO)cc1N1CCC2(CC1)CC2` [Compound 4]: the pIC50 is 7.20 in the test on HT-29 cells, not below 7.00 in test [1] and less than 5.00 in the test on HCT116 cells.

On to `O=C(Nc1cc2c(c(OC3CCC3)c1)OCC2)c1ccc(NS(=O)(=O)CCO)cc1N1CCC2(CC1)CC2` [Compound 7], for which the figures for the pIC50 (with HT-29 cells; in test [1]; in the test with HCT116 cells) were 7.14, not below 7.00 and less than 5.00, respectively.

With `O=C(Nc1ccc(NS(=O)(=O)CCO)cc1N1CCC2(CC1)CC2)c1cc2c(c(N3CCC(F)(F)CC3)c1)OCC2` [Compound 33], the figures for the pIC50 (with HT-29 cells; in test [1]; in the test with HCT116 cells) were 7.28, not below 7.00 and less than 5.00, respectively.

On to `O=C(Nc1ccc(S(=O)(=O)NCCO)cc1N1CCC2(CC1)CC2)c1cc2c(c(N3CCC(F)(F)CC3)c1)OCC2` [Compound 49], for which the pIC50 with HT-29 cells is 7.21; in test [1], not below 7.00; in the test with HCT116 cells, less than 5.00.

In the case of `O=C(Nc1cc2c(c(N3CCC(F)(F)CC3)n1)OCC2)c1ccc(NS(=O)(=O)CCO)cc1N1CCC2(CC1)CC2` [Compound 65], the figures for the pIC50 (in the test with HT-29 cells; in test [1]; in the test with HCT116 cells) were 8.10, not below 7.00 and less than 5.00, respectively.

Turning to `C[C@@H]1CN(c2nc(NC(=O)c3ccc(NS(=O)(=O)CCO)cc3N3CCC4(CC3)CC4)cc3c2OCC3)CCO1` [Compound 66], the pIC50 is 7.07 with HT-29 cells, not below 7.00 in test [1] and less than 5.00 with HCT116 cells.

As for `O=C(Nc1cc2c(c(N3CC(F)(F)C3)n1)OCC2)c1ccc(NS(=O)(=O)CCO)cc1N1CCC2(CC1)CC2` [Compound 68], the pIC50 with HT-29 cells was 7.29; in test [1], not below 7.00; in the test with HCT116 cells, less than 5.00.

Take `O=C(Nc1cc2c(c(OCCC(F)(F)F)n1)OCC2)c1ccc(NS(=O)(=O)CCO)cc1N1CCC2(CC1)CC2` [Compound 69]: the pIC50 was 7.15 in the test with HT-29 cells, not below 7.00 in test [1] and less than 5.00 in the test with HCT116 cells.

As for `O=C(Nc1cc2c(c(OC3CCC3)n1)OCC2)c1ccc(NS(=O)(=O)CCO)cc1N1CCC2(CC1)CC2` [Compound 71], the results for the pIC50 (with HT-29 cells; in test [1]; in the test with HCT116 cells) were 7.25, not below 7.00 and less than 5.00, respectively.

Consider `O=C(Nc1cc2c(c(N3CCC(F)(F)CC3)n1)OCC2)c1ccc(S(=O)(=O)NCCO)cc1N1CCC2(CC1)CC2` [Compound 81], for which the pIC50 was 7.29 with HT-29 cells, not below 7.00 in test [1] and less than 5.00 in the test with HCT116 cells.

Consider `O=C(Nc1ccc(NS(=O)(=O)CCO)cc1N1CCC2(CC1)CC2)c1cc2c(c(N3CCC(F)(F)CC3)n1)OCC2` [Compound 97], for which the values for the pIC50 (with HT-29 cells; in test [1]; in the test on HCT116 cells) were 7.24, not below 7.00 and less than 5.00, respectively.

Regarding `O=C(Nc1ccc(S(=O)(=O)NCCO)cc1N1CCC2(CC1)CC2)c1cc2c(c(N3CCC(F)(F)CC3)n1)OCC2` [Compound 113], the figures for the pIC50 (in the test with HT-29 cells; in test [1]; in the test with HCT116 cells) were 7.09, not below 7.00 and less than 5.00, respectively.

`O=C(Nc1cc(N2CCC(F)(F)CC2)c2occc2c1)c1ccc(NS(=O)(=O)CCO)cc1N1CCC2(CC1)CC2` [Compound 129]: the pIC50 with HT-29 cells was 7.40; in test [1], not below 7.00; with HCT116 cells, less than 5.00.

In the case of `O=C(Nc1cc(N2CCC(F)(F)CC2)c2ocnc2c1)c1ccc(NS(=O)(=O)CCO)cc1N1CCC2(CC1)CC2` [Compound 513], the pIC50 in the test with HT-29 cells is 7.15; in test [1], not below 7.00; in the test with HCT116 cells, less than 5.00.

With `O=C(Nc1cc2cc[nH]c2c(N2CCC(F)(F)CC2)n1)c1ccc(NS(=O)(=O)CCO)cc1N1CCC2(CC1)CC2` [Compound 522], the results for the pIC50 (in the test with HT-29 cells; in test [1]; in the test with HCT116 cells) were 7.16, not below 7.00 and 5.09, respectively.

As for `O=C(Nc1cc(N2CCC(F)(F)CC2)c2ncccc2c1)c1ccc(NS(=O)(=O)CCO)cc1N1CCC2(CC1)CC2` [Compound 530], the pIC50 in the test with HT-29 cells is 7.44; in test [1], not below 7.00; in the test with HCT116 cells, less than 5.00.

For the compound `O=C(Nc1cc2c(c(N3CCC(F)(F)CC3)c1)OCCC2)c1ccc(NS(=O)(=O)CCO)cc1N1CCC2(CC1)CC2` [Compound 539], the pIC50 was 7.37 in the test with HT-29 cells, not below 7.00 in test [1] and less than 5.00 in the test with HCT116 cells.

(Values after US20250197382A1, “KIF18A INHIBITOR” (WIGEN BIOMEDICINE TECHNOLOGY (SHANGHAI) CO., LTD., priority 2022, published 2025).)
